system: phospho-GSK-3β; assay: GSK 3b assay: Zn ionophore-enhanced phosphorylation of GSK-3β (AlphaScreen SureFire Phospho-GSK 3β (Ser9) kit) in SH-SY5Y cells; type: cell-based, human; details: test compound 2 μM + ZnCl2 5 μM, 2 h at 37° C.
Description: The phosphorylation of GSK-3β is enhanced when Zn is imported into a cell by a Zn ionophore. This property was measured for the compounds of the current invention and the data presented relative to the know Zn ionophore PBT2 using the following protocol.
The human neuroblastoma SH-SY5Y cells were obtained from Cell bank Australia (Catalogue number: 94030304). SH-SY5Y cell culture was maintained in DMEM/F12+15% FBS inside an incubator at 37° C. in the presence of 5% CO2. The cells were sub-cultured once a week and the media exchanged once during the week. Cells for the assay were plated at a density of 60,000 cells/well.
Stock solutions of the samples were prepared as a 5 mM stock in DMSO and a stock solution of 1 mM ZnCl2/3 mM Glutamic acid was prepared in water. Immediately before use the compounds were diluted 1:10 with water before being added to Locke's buffer in a treatment tube. Samples were subsequently treated with either distilled water or the ZnCl2/Glutamic acid solution to yield a treatment solution which has a final concentration of the test compound at 2 μM+/−ZnCl2 at 5 μM.
The culture media was aspirated from the wells and the media replaced with the treatment solution prepared above. In addition to the relative standard (PBT2+/−ZnCl2), control wells were also included consisting of +/−ZnCl2 at 5 μM with all treatments done in triplicate. The plate was incubated at 37° C. with the treatment solution for 2 h after which time the wells were aspirated and washed with sterile PBS.
Measurement of the change of phospho-GSK-3β was determined using an AlphaScreen® SureFire® Phospho-GSK […] (Ser9) Kit with the cells being processed as per the manufacturer's instructions using an initial incubation of 2 h/24° C. and a final incubation of 16 h/24° C.
The fluorescence was measured on an Enspire plate reader. […] Representative data is presented in Table 12 using the following ranges: A<50%, B 50-<100%, C 100-<150%, D>150%.

SMILES | GSK-Zn (signal as % of the positive standard PBT2+ZnCl2)
CC/C(=N\NC(=O)c1cccc(C)c1)c1ncccn1 [Compound 44] | B (B 50-<100%)
Cc1cccc(C(=NNC(=O)c2ccc(N(C)C)cc2)c2cccc(C)n2)n1 [Compound 123] | C (C 100-<150%)
COc1ccc(Cl)cc1C(=O)N/N=C1\CCCc2cccnc21 [Compound 17] | A (A<50%)
CCOc1cccc(C(=O)NN=C(c2cccc(C)n2)c2cccc(C)n2)c1 [Compound 132] | C (C 100-<150%)
Cc1cccc(C(=NNC(=O)c2ccccc2F)c2cccc(C)n2)n1 [Compound 134] | B (B 50-<100%)
Cc1cccc(C(=NNC(=O)c2cccc(C)c2O)c2cccc(C)n2)n1 [Compound 129] | C (C 100-<150%)
O=C(N/N=C/c1nc2ccccc2s1)c1cc(Cl)ccc1O [Compound 115] | A (A<50%)
C/C(=N\NC(=O)c1cccc(C)c1O)c1cccc(C)n1 [Compound 65] | B (B 50-<100%)
C/C(=N\NC(=O)c1cccc(C)c1O)c1ccc(C)s1 [Compound 103] | B (B 50-<100%)
CC/C(=N\NC(=O)c1snnc1C)c1ncccn1 [Compound 43, (E)-4-Methyl-N′-(1-(pyrimidin-2-yl)propylidene)-1,2,3-thiadiazole-5-carbohydrazide] | C (C 100-<150%)
C/C(=N\NC(=O)c1ccccc1C)c1cc(C)ccn1 [Compound 74] | B (B 50-<100%)
C/C(=N\NC(=O)c1ccccc1Cl)c1cccc(C)n1 [Compound 67] | C (C 100-<150%)
Cc1cccc(C(=O)N/N=C(/c2ncccn2)C(C)C)c1 [Compound 51] | B (B 50-<100%)
CC/C(=N\NC(=O)c1cccc(C)c1O)c1ncccn1 [Compound 46] | C (C 100-<150%)
COc1cccc(C(=O)N/N=C(\C)c2ccc3ccccc3n2)c1 [Compound 78] | C (C 100-<150%)
O=C(N/N=C1\CCCc2cccnc21)c1ccc(C(F)(F)F)cc1 [Compound 20] | A (A<50%)
C/C(=N\NC(=O)c1ccccc1O)c1nc(C)cs1 [Compound 94] | C (C 100-<150%)
COc1ccc(C(=O)N/N=C2/c3ncccc3CCC2(C)C)cc1OC [Compound 26] | A (A<50%)
COc1cccc(C(=O)NN=C(c2cccc(C)n2)c2cccc(C)n2)c1 [Compound 131] | B (B 50-<100%)
O=C(N/N=C1\CCCc2cccnc21)c1ccccc1O [Compound 12, (E)-N′-(6,7-dihydroquinolin-8(5H)-ylidene)-2-hydroxybenzohydrazide] | B (B 50-<100%)
C/C(=N\NC(=O)c1cc2ccccc2s1)c1ccccn1 [Compound 146, (E)-N′-(1-(Pyridin-2-yl)ethylidene)benzo[b]thiophene-2-carbohydrazide] | C (C 100-<150%)
C/C(=N\NC(=O)c1ccccc1O)c1nc2ccccc2s1 [Compound 104] | D (D>150%)
COc1cc(C(=O)NN=C(c2cccc(C)n2)c2cccc(C)n2)ccc1O [Compound 130, N′-(bis(6-Methylpyridin-2-yl)methylene)-4-hydroxy-3-methoxybenzohydrazide] | A (A<50%)
O=C(N/N=C/c1nccs1)c1cc(Cl)ccc1O [Compound 109] | B (B 50-<100%)
Cc1cccc(C(=O)N/N=C\c2nc(C)c(C)s2)c1 [Compound 106] | A (A<50%)
COc1ccc(C(=O)N/N=C(\C)c2ccc3ccccc3n2)cc1OC [Compound 77] | C (C 100-<150%)
CC/C(=N\NC(=O)c1cccc(OC)c1)c1ncccn1 [Compound 45] | C (C 100-<150%)

SMILES | GSK-Zn (signal as % of the positive standard PBT2+ZnCl2)
COc1cc(C(=O)N/N=C(\C)c2ccc3ccccc3n2)ccc1O [Compound 87] | C (C 100-<150%)
C/C(=N\NC(=O)c1cc2ccccc2s1)c1cc(C)ccn1 [Compound 72] | C (C 100-<150%)
Cl.O=C(N/N=C1\CCCc2cccnc21)c1ccccc1OCCN1CCCC1 [Compound 41, (E)-N′-(6,7-Dihydroquinolin-8(5H)-ylidene)-2-(2-(pyrrolidin-1-yl)ethoxy)benzohydrazide hydrochloride] | A (A<50%)
Cc1ccccc1C(=O)N/N=C1\CCCc2cccnc21 [Compound 18] | B (B 50-<100%)
O=C(N/N=C1\CCCc2cccnc21)c1cccc(Cl)c1 [Compound 16] | A (A<50%)
COc1ccc(C(=O)NN=C(c2cccc(C)n2)c2cccc(C)n2)cc1OC [Compound 126] | C (C 100-<150%)
C/C(=N\NC(=O)c1ccccc1O)c1ccc2ccccc2n1 [Compound 76] | C (C 100-<150%)
C/C(=N\NC(=O)c1cccc(C)c1O)c1nc2ccccc2s1 [Compound 105] | B (B 50-<100%)
C/C(=N\NC(=O)c1snnc1C)c1cc(C)ccn1 [Compound 73] | C (C 100-<150%)
C/C(=N\NC(=O)c1cc(Cl)ccc1O)c1ccc2ccccc2n1 [Compound 92] | C (C 100-<150%)
C/C(=N\NC(=O)c1cc2ccccc2s1)c1cccc(C)n1 [Compound 75] | C (C 100-<150%)
O=C(N/N=C1\CCCc2cccnc21)c1cc2c(s1)-c1ccccc1OC2 [Compound 25] | B (B 50-<100%)
Cc1cccc(C(=O)N/N=C/c2nccs2)c1O [Compound 119] | A (A<50%)
C/C(=N\NC(=O)c1snnc1C)c1nc(C)cs1 [Compound 100, (E)-4-Methyl-N′-(1-(4-methylthiazol-2-yl)ethylidene)-1,2,3-thiadiazole-5-carbohydrazide] | C (C 100-<150%)
Cc1cccc(C(=NNC(=O)c2cc(Cl)ccc2O)c2cccc(C)n2)n1 [Compound 128] | D (D>150%)
C/C(=N\NC(=O)c1cc(Cl)ccc1O)c1nc(C)cs1 [Compound 95] | C (C 100-<150%)
O=C(N/N=C1\CCCc2cccnc21)c1cc2ccccc2s1 [Compound 24] | A (A<50%)
Cc1cccc(C(=O)NN=C(c2cccc(C)n2)c2cccc(C)n2)c1 [Compound 133] | C (C 100-<150%)
Cc1cccc(C(=O)N/N=C\c2cn3ccccc3n2)c1 [Compound 121] | A (A<50%)
Cc1cccc(C(=NNC(=O)c2ccccn2)c2cccc(C)n2)n1 [Compound 135] | B (B 50-<100%)
C/C(=N\NC(=O)c1cccc(C)c1)c1ccc2ccccc2n1 [Compound 81] | C (C 100-<150%)
C/C(=N\NC(=O)c1cccc(C)c1O)c1ccc2ccccc2n1 [Compound 82] | C (C 100-<150%)
O=C(N/N=C1\CCCc2cccnc21)c1cc(Cl)ccc1O [Compound 11] | C (C 100-<150%)
COc1cc(C(=O)N/N=C2\CCCc3cccnc32)ccc1O [Compound 21] | A (A<50%)
COc1cccc(C(=O)N/N=C(\C)c2cccc(C)n2)c1 [Compound 64] | B (B 50-<100%)
COc1ccc(C(=O)N/N=C2\CCc3cccnc32)cc1OC [Compound 38, (E)-N′-(5H-Cyclopenta[b]pyridin-7(6H)-ylidene)-3,4-dimethoxybenzohydrazide] | A (A<50%)
